Assay results: PubChem BioAssay (NCI)
Values joined by “and” are separate entries in the source; they are usually repeats but may differ in a detail not shown here. Identical values can stand only once.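 Briefly, cells in 96-well plates were exposed to five compound concentrations for 48 h, and endpoints were estimated by linear interpolation. GI50: concentration for 50% inhibition of growth. TGI: concentration producing complete growth inhibition.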

Tests used:
Assay in all cases: growth of human tumour cells (NCI), 48 h
HCT-116 colon = system: HCT-116 colon
LOX IMVI melanoma = system: LOX IMVI melanoma
K-562 leukemia = system: K-562 leukemia
DU-145 prostate = system: DU-145 prostate
COLO 205 colon = system: COLO 205 colon
A498 renal = system: A498 renal
SK-MEL-5 melanoma = system: SK-MEL-5 melanoma
TK-10 renal = system: TK-10 renal
M14 melanoma = system: M14 melanoma
UACC-257 melanoma = system: UACC-257 melanoma
CCRF-CEM leukemia = system: CCRF-CEM leukemia
MDA-MB-435 = system: MDA-MB-435
OVCAR-8 ovarian = system: OVCAR-8 ovarian
OVCAR-5 ovarian = system: OVCAR-5 ovarian
HCC-2998 colon = system: HCC-2998 colon
KM12 colon = system: KM12 colon
SN12C renal = system: SN12C renal
SK-MEL-2 melanoma = system: SK-MEL-2 melanoma
SW-620 colon = system: SW-620 colon
HL-60(TB) leukemia = system: HL-60(TB) leukemia
SF-539 CNS = system: SF-539 CNS
SR leukemia = system: SR leukemia
MOLT-4 leukemia = system: MOLT-4 leukemia
UACC-62 melanoma = system: UACC-62 melanoma
SK-OV-3 ovarian = system: SK-OV-3 ovarian
EKVX NSCLC = system: EKVX NSCLC
A549 NSCLC = system: A549 NSCLC
NCI-H226 lung = system: NCI-H226 lung
BT-549 breast = system: BT-549 breast

SMILES: O=C(NC[C@H](O)CO)c1ccncc1Nc1ccc(I)cc1F
- GI50 (HCT-116 colon): 55.6 nM and 104 nM
- TGI (HCT-116 colon): > 100000 nM
- TGI (LOX IMVI melanoma): > 10000 nM and 22400 nM
- GI50 (K-562 leukemia): 1320 nM and 4260 nM
- TGI (K-562 leukemia): > 100000 nM
- GI50 (DU-145 prostate): > 10000 nM and 17800 nM
- TGI (DU-145 prostate): > 100000 nM
- GI50 (COLO 205 colon): 3.23 nM and < 10 nM
- TGI (COLO 205 colon): > 100000 nM
- GI50 (A498 renal): 30 nM and 39.4 nM
- TGI (A498 renal): 417 nM and 517 nM
- GI50 (SK-MEL-5 melanoma): 7700 nM
- TGI (SK-MEL-5 melanoma): > 100000 nM
- TGI (TK-10 renal): > 100000 nM
- GI50 (M14 melanoma): 3.1 nM and < 10 nM
- TGI (M14 melanoma): > 3520 nM and 10800 nM
- GI50 (UACC-257 melanoma): 3.59 nM and < 10 nM
- TGI (UACC-257 melanoma): 40.3 nM and 43.8 nM
- GI50 (CCRF-CEM leukemia): > 100000 nM
- TGI (CCRF-CEM leukemia): > 100000 nM
- GI50 (MDA-MB-435): 9.07 nM and 25.7 nM
- TGI (MDA-MB-435): > 100000 nM
- GI50 (OVCAR-8 ovarian): > 10000 nM and 37400 nM
- TGI (OVCAR-8 ovarian): > 100000 nM
- GI50 (OVCAR-5 ovarian): 10.4 nM and 15.1 nM
- TGI (OVCAR-5 ovarian): > 100000 nM
- GI50 (HCC-2998 colon): 3.58 nM and 19 nM
- TGI (HCC-2998 colon): > 8400 nM and 9220 nM
- GI50 (KM12 colon): 111 nM and 154 nM
- TGI (KM12 colon): > 100000 nM
- GI50 (SN12C renal): > 7130 nM and 7740 nM
- TGI (SN12C renal): > 100000 nM
- GI50 (SK-MEL-2 melanoma): 4.84 nM and < 10 nM
- TGI (SK-MEL-2 melanoma): 92.3 nM and 59.9 nM
- GI50 (SW-620 colon): 14.4 nM and 18.8 nM
- TGI (SW-620 colon): > 100000 nM
- GI50 (HL-60(TB) leukemia): 2.28 nM and < 10 nM
- TGI (HL-60(TB) leukemia): > 54200 nM
- GI50 (SF-539 CNS): > 10000 nM and 23200 nM
- TGI (SF-539 CNS): > 100000 nM
- GI50 (SR leukemia): > 10000 nM and 52400 nM
- TGI (SR leukemia): > 100000 nM
- GI50 (MOLT-4 leukemia): > 79900 nM
- TGI (MOLT-4 leukemia): > 100000 nM
- GI50 (UACC-62 melanoma): 2.48 nM and < 10 nM
- TGI (UACC-62 melanoma): 29.2 nM
- GI50 (SK-OV-3 ovarian): > 4460 nM and 26200 nM
- TGI (SK-OV-3 ovarian): > 100000 nM
- GI50 (EKVX NSCLC): 194 nM and 313 nM
- TGI (EKVX NSCLC): > 100000 nM
- GI50 (A549 NSCLC): 694 nM and 1790 nM
- TGI (A549 NSCLC): > 75800 nM
- GI50 (NCI-H226 lung): > 6360 nM and 1400 nM
- TGI (NCI-H226 lung): > 100000 nM
- GI50 (BT-549 breast): > 10000 nM and 23300 nM
- TGI (BT-549 breast): > 95000 nM
